Results reported in ChEMBL document CHEMBL5236660, “Design, synthesis, and biological evaluation of quinoxalinone derivatives as potent BRD4 inhibitors” (Bioorg Med Chem, 2023).

How the values were obtained:
[1] = target: Bromodomain-containing protein 4 (Homo sapiens, UniProt O60885); experiment: Inhibition of BRD4 BD1 (unknown origin) by TR-FRET assay
HepG2 [2] = experiment: Inhibition of colony formation in human HepG2 cells at 0.625 to 10 uM incubated for 8 days with drug replacement every 2 days by crystal violet staining based imaging analysis; assay type: functional, cell-based; conditions: dose 0.625-10 µM, time 8.0 day
HepG2 [3] = experiment: Induction of apoptosis in human HepG2 cells assessed as late apoptotic cells at 2.5 uM incubated for 24 hrs by Annexin-V/PI staining based flow cytometry (Rvb=0.66%); assay type: functional
HepG2 [4] = experiment: Antimigratory activity against human HepG2 cells assessed as increase in Occludin expression at 0.625 to 2.5 uM incubated 24 hrs by Western blot analysis; assay type: functional, cell-based; conditions: dose 0.625-2.5 µM
HepG2 [5] = experiment: Inhibition of c-myc expression in human HepG2 cells at 0.625 to 2.5 uM incubated for 24 hrs by Western blot analysis; assay type: functional, cell-based; conditions: dose 0.625-2.5 µM
HepG2 [6] = experiment: Induction of cell cycle arrest in human HepG2 cells assessed as accumulation at G2/M phase at 5 uM incubated for 24 hrs by flow cytometry (Rvb= 14.05%); assay type: functional
HepG2 [7] = experiment: Induction of apoptosis in human HepG2 cells assessed as late apoptotic cells at 5 uM incubated for 24 hrs by Annexin-V/PI staining based flow cytometry (Rvb=0.66%); assay type: functional
HepG2 [8] = experiment: Induction of cell cycle arrest in human HepG2 cells assessed as accumulation at S phase at 5 uM incubated for 24 hrs by flow cytometry (Rvb= 20.1%); assay type: functional
HepG2 [9] = experiment: Induction of cell cycle arrest in human HepG2 cells assessed as accumulation at S phase at 2.5 uM incubated for 24 hrs by flow cytometry (Rvb= 20.1%); assay type: functional
HepG2 [10] = experiment: Induction of apoptosis in human HepG2 cells assessed as early apoptotic cells at 5 uM incubated for 24 hrs by Annexin-V/PI staining based flow cytometry (Rvb=4.48%); assay type: functional
HepG2 [11] = experiment: Induction of apoptosis in human HepG2 cells assessed as viable cells at 2.5 uM incubated for 24 hrs by Annexin-V/PI staining based flow cytometry (Rvb=94.0%); assay type: functional; conditions: read-out: Activity

- IC50 [1]: 82.3 nM
Compound: CC(=O)Nc1ccc(Oc2ccc(F)cc2F)c(-c2ccc3[nH]c(=O)c(C)nc3c2)c1
- inhibition (HepG2 [2]): Dose-Dependent Effect
- Activity (HepG2 [3]): 1.39%
- Activity (HepG2 [4]): Dose-Dependent Effect
- inhibition (HepG2 [5]): Dose-Dependent Effect
- Activity (HepG2 [6]): 21%
- Activity (HepG2 [7]): 1.26%
- Activity (HepG2 [8]): 12.4%
- Activity (HepG2 [9]): 9.5%
- Activity (HepG2 [10]): 10.4%
- viability at 2.5 µM (HepG2 [11]): 90.6%
